From patent US12583868B2, “JAK inhibitors and methods for synthesizing and using thereof” (GALDERMA HOLDING SA, priority 2020, dated 2026) come the findings set out here.

Usually IC50 stands for the concentration needed to halve the response being measured. As usually defined, the chromatographic logD is lipophilicity estimated from chromatographic retention. Higher therefore signals higher lipophilicity. By logD is commonly meant the decadic logarithm of the distribution of all forms, ionised or not, between an organic phase and buffer at a given pH.

Data set [1] is described as follows: Human skin ex vivo: flux through skin and dermis concentration (Franz cells). The format is in vitro ADME. The settings on record: PG/H2O cream 1 mg/mL, human skin.
The nature of data set [2]: Intrinsic clearance in hepatocytes, human. The format is in vitro ADME. The note with it: 2.5 μM. As to the method:
(§1) The intrinsic clearance was assessed in cryopreserved Hepatocytes obtained by Human livers donors of mix gender pooled together, male balb-c mouse, male Wistar Han rats and male Göttingen minipig, by looking at the parent compound disappearance. The incubations were performed using a final concentration of viable cells of 1 million/ml (viability above 70%) and test item of 2.5 μM. Incubations were followed up to 2 h. Aliquotes were withdrawn at different time points and reaction quenched with acetonitrile. After centrifugation the supernatant was analyzed by HPLC/MS to quantify the remaining amount of parent in comparison with time 0. The clearance was calculated by fitting the log of the percentage remaining with Graphpad Prism ver.7.

Data set [3] is described as follows: Intrinsic clearance in hepatocytes, mouse. The data set is classed as in vitro ADME, male balb-c mouse. The settings on record: 2.5 μM. Here is the method:
as §1

A short description of data set [4]: Intrinsic clearance in hepatocytes, rat. The settings on record: 2.5 μM. The data set is classed as in vitro ADME, male Wistar Han rats. Here is the method:
as §1

A short description of data set [5]: Protein binding analysis (RED), minipig plasma. The data set is classed as in vitro ADME. The settings on record: male, Göttingen, pH 7.4, read-out: minipig FU. As to the method: (§2) The protein binding was assessed in plasma of Human, male balb-c mice, male Wistar Han rat, male Göttingen minipig by rapid equilibrium dialysis (RED) devices. After the plasma and buffer phosphate 50 mM pH7.4 were equilibrated at 37° C., the compound was added to plasma to reach a final concentration of 5 μM. An aliquot of plasma was withdrawn immediately. Equilibration under mild agitation was continued for 4 h. The plasma and buffer were sampled and samples were quenched with 4 volumes of acetonitrile and centrifuged. Supernatant was quantified in HPLC/MS/MS to calculate the recovery and the percentage of compound dissolved in the buffer (unbound) and bound to plasma proteins.

Data set [6] in a line: Intrinsic clearance in hepatocytes, minipig. The format is in vitro ADME, male Göttingen minipig. The note with it: 2.5 μM. As to the method:
as §1

Data set [7] in a line: Systemic level in PD/IL6 mouse topical dose response. The data set is classed as in vivo, BALB/c ByJ Rj mice. The settings on record: topical 10 mM. Here is the method:
Skin samples were harvested 15 min.

The nature of data set [8]: Thermodynamic sol PG_H2O pH 6 2/8. The format is physicochemical. The note with it: amorphous material.
In another data set the target is T1, CYP2D6 (Homo sapiens, UniProt P10635).
T1 construct: Human pooled liver microsomes of mixed gender (mainly Caucasian); from tissue; host or cells: pooled human liver microsomes
Nature of the data set: CYP2D6 inhibition in human liver microsomes. The data set is classed as in vitro ADME. The note with it: dextromethorphan, CRL data. As to the method:
After 5 min at 37° C. incubations were started with NADPH and prolonged for 10 min. The test compound was tested up to 30 μM keeping the final concentration of organic solvent was below 0.5%. The final concentration of microsomes was 0.1 mg/ml to ensure linearity during the time of the incubation. The reaction was quenched by adding 3 volume of acetonitrile. After centrifugation the supernatant was analyzed by HPLC/MS/MS for the formation of des-methyldextromethorphane selectively produced by CYP2D6 and 1′hydroxymidazolam or 6p-hydroxytestosterone, selectively produced by CYP3A. IC50 was calculated with Graphpad Prism v.7 comparing the amount of metabolite produced in presence of the test compound with that produced in absence of test item.

Data set [9] is described as follows: Protein binding analysis (RED), rat plasma. The format is in vitro ADME, male Wistar Han rat. The note with it: 5 μM. As to the method: as §2
A further data set can be described thus: Chrom logD pH 7.4. The data set is classed as physicochemical.
In a further data set the test system is 44 targets. The format is binding. As to the method:
An in vitro pharmacology assay was conducted to assess the capability of the compounds to interact with different pharmacological targets when tested at 10 μM in different binding and enzyme/uptake assays. The included targets are indicative of potential effects in major organs and drug-drug interactions.
Compound binding was calculated as a % inhibition of the binding of a radioactively labelled ligand specific for each target. […] […].

A short description of another data set: SF logD. The data set is classed as physicochemical.
The nature of data set [10]: In vivo pharmacokinetic analysis in minipig (iv). On the set-up: species or system male Göttingen minipigs. The note with it: iv 1 mg/kg. Here is the method:
Three male Göttingen minipigs. Compound was administered intravenously to fed animals at a target dose of 1 mg/kg, dose volume 1 mL/kg, in DMSO: hydroxypropyl-p-cyclodextrin 20% in phosphate buffer 60 mM pH 7 (5:95). Blood samples were collected at various time points. Blood samples were then assayed using a method based upon protein precipitation with acetonitrile followed by LC/MS/MS analysis. Non-compartmental methods were used for pharmacokinetic analysis of blood concentration versus time data.

Data set [11] in a line: Protein binding analysis (RED), human plasma. The format is in vitro ADME. The settings on record: 5 μM. As to the method: as §2
Another data set has as its system IL6. Put plainly: hWB assay, IL6. The data set is classed as cell-based, h.
A short description of data set [12]: In vivo pharmacokinetic analysis in rat (iv). On the set-up: species or system male Wistar Han rat. The note with it: iv 1 mg/kg. Here is the method: One male Wistar Han rat. Compound was administered intravenously to fed animal at a target dose of 1 mg/kg, dose volume: 2 mL/kg, in DMSO/hydroxypropyl-beta-cyclodextrin 20% in phosphate buffer 60 mM pH 7 (5:95). Blood samples were collected at various time points. Blood samples were then assayed using a method based upon protein precipitation with acetonitrile followed by LC/MS/MS analysis. Non-compartmental methods were used for pharmacokinetic analysis of blood concentration versus time data

A short description of data set [13]: Protein binding analysis (RED), mouse plasma. The data set is classed as in vitro ADME, male balb-c mice. The settings on record: 5 μM. As to the method: as §2
Data set [14] has as its system IL-6 induced pSTAT3 in TF-1 cells. Put plainly: In vitro cellular pSTAT3 assay, IL-6 stimulated TF-1 cells. The format is cell-based. The note with it: Homo sapiens. Here is the method:
. The flasks were incubated overnight at 37° C., 5% CO2 then seeded in 96 well plates (TPP) at 150000 cells/well in 25 μL. Cells were treated with 5 IL/well of serially diluted compounds in DMSO (final DMSO concentration of 0.1%) and incubated for 30 min at 37° C. IL-6 (6 IL/well, 100 ng/ml as a final concentration in Opti-MEM, Thermofisher, PHC0066) was added to the cell plates and followed by a 30-min incubation at 37° C. Next, cells were lysed by adding 12 μl/well of 4× supplemented lysis buffer, incubated at 4° C. for 30 min under agitation. The samples were processed for the pSTAT3 detection as described by the manufacturer (MSD) with 25 μl of non-diluted cell lysates tested. Compounds were tested in simplicates over 10 three-step dilutions in order to determine their IC50 values.

Another data set in a line: Kinetic aq sol. The data set is classed as physicochemical.

“And” between values parts separate entries of the source, which are not always exact repeats. Identical values can stand only once. Like-named read-outs stand apart in the source and are kept apart here. A value given as a limit tells only on which side of the number the result lay.

T1 sequence (P10635 whole entry): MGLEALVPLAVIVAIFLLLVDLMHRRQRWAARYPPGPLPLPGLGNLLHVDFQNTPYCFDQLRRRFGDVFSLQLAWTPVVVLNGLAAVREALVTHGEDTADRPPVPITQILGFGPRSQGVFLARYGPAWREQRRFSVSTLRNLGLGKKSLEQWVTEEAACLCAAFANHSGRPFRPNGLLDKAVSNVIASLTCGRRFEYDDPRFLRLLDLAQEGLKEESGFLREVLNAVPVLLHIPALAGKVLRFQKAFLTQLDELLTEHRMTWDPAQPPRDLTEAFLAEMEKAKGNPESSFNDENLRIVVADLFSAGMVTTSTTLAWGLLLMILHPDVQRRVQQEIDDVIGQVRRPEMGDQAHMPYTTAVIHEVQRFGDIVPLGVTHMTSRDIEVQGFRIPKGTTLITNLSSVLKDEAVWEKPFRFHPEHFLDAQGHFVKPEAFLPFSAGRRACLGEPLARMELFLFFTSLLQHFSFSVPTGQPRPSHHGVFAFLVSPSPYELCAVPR

For the compound `N#CC[C@H](C1CCCC1)n1cc(-c2ncnc3[nH]ccc23)cn1` [Ruxolitinib, reference compound], the “measured flux 6-24 hr” value in data set [1] was 5.3 ng/cm^2/hr. For the same compound, the “Intr. Clear. h heps” value in data set [2] is on record as 4.4 microL/min/10 6 cells. For the same compound, the “Intr. Clear. mheps” value in [3] was found to be 150 microL/min/10 6 cells. Also, the “Intr. Clear. rheps” value in data set [4] is given as 300 microL/min/10 6 cells. In data set [5], the fraction unbound at 4 h, 5 μM was 0.25. In data set [6], the “Intr. Clear. minipig heps” value is given as 141 microL/min/10 6 cells. For the same compound, the “PD/IL6 mouse top DR 0.01-10 mM (PG/Acetone/Transcutol): Systemic level @10 mM - 2 hrs” value in data set [7] turned out to be 81 nM. The “Thermodynamic sol PG_H2O pH 6 2/8” value in data set [8] is 1 mM and 0.3 mg/mL. In addition, the IC50 against CYP2D6 is > 30000 nM; in the data set with IL6, 6900 nM; in data set [14] (TF-1, read-out: Cellular Assay: IC50 IL6), 8 nM; in data set [14] (TF-1, read-out: Free IC50) it was 200 nM. In data set [9], this compound yielded a rFU of 13%. The chromatographic logD in “Chrom logD pH 7.4” amounted to 1.5. Further, the “Safety panel (Cerep): 44 targets % inh @10 microM Nb of targets > 50% inh” value in the data set on 44 targets is recorded as 0/44. In addition, in “SF logD”, the logD was 2.3. For the same compound, in data set [10], the “iv PK minipig: ER” value is 68%. Moreover, the clearance in data set [10] (male, Göttingen, whole blood, read-out: iv PK minipig: Cl) came out at 19 mL/min/kg; in [12] (male, Wistar Han, whole blood, read-out: iv PK rat: Cl) it was 40 mL/min/kg. This compound also registered a hFU in data set [11] of 4%. Besides, the “iv PK rat: ER” value in [12] is 51%. The mFU in data set [13] is recorded as 7.7%. Besides, the Kinetic aq sol in the data set “Kinetic aq sol” is given as 232/ND (no cristalline microM.
